Read-outs that look alike come from different tables or passages of the source.
Legend:
GPR54 [1] = biological target: T1, GPR54 (Homo sapiens (Human), UniProt Q969F8); assay: Flipr assay of GPR54 agonist activity (increase in intracellular Ca2+ ion concentration); type: cell-based; conditions: for % Activity / activity at 0.01 µM: signal upon addition of 10 nM compound, based on signal of 1 μM kisspeptin-10 as 100%
Description: The GPR54 agonist activity of the obtained compounds was evaluated by Flipr assay measuring increase in the intracellular Ca^2+ ion concentration caused by stimulation of receptor as a signal.

[2] = Half-life of the compound in the serum; conditions: for t1/2: in the serum; for half-life: serum, t1/2, in the serum
Description: (§2) In addition, the half-life (t1/2) of the compound in the serum was measured.

MMP2 = MMP2 (Homo sapiens (Human), UniProt P08253); assay: Resistance to decomposition by matrix protease MMP2; type: in vitro ADME; conditions: for retention after treatment with MMP2: 48 hr, in words
Description: (§1) Furthermore, the resistance of the present invention to the decomposition by matrix protease (MMP) was examined. […] However, only about 50% of compound 1 was retained.

MMP9 = MMP9 (Homo sapiens (Human), UniProt P14780); assay: Resistance to decomposition by matrix protease MMP9; type: in vitro ADME; conditions: for retention after treatment with MMP9: 72 hr, in words
Description: as §1

[3] = serum
Description: as §2

GPR54 [4] = biological target: T1, GPR54; assay: Binding inhibitory test using membrane fraction of human GPR54-expressing cell and [125I]-Metastin 40-54
Description: A binding inhibitory test using membrane fraction of human GPR54-expressing cell and [^125I]-Metastin 40-54 was performed, and IC50 value was calculated (see non-patent document 2).

T1 sequence (Q969F8 whole entry): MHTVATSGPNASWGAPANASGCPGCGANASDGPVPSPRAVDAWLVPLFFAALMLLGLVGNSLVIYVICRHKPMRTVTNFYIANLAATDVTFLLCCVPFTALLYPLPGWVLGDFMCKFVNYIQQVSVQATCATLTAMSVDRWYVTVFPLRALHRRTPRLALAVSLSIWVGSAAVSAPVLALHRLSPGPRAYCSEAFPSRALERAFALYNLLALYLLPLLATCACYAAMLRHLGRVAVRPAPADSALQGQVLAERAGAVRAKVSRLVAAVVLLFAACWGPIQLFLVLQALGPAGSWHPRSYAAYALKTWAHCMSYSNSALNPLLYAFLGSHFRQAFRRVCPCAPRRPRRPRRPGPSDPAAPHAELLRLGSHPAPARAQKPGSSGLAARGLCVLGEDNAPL

Row | % Activity (GPR54 [1]) [%] | t1/2 [2] [h] | activity at 0.01 µM (GPR54 [1]) [%] | half-life [2] [h] | SMILES | also measured
1 | 0.6 | 470 |  |  | CC(C)CC(C[C@@H](O)CNC(=O)[C@H](Cc1ccccc1)NC(=O)c1ccc(F)cc1)C(=O)N[C@@H](CCCNC(=N)N)C(=O)N[C@@H](Cc1c[nH]c2ccccc12)C(N)=O (single isomer, unassigned) [Compound 24a] | 
2 | 53.9 | 54 |  |  | CC(C)CC(C[C@@H](O)CNC(=O)[C@H](Cc1ccccc1)NC(=O)c1ccc(F)cc1)C(=O)N[C@@H](CCCNC(=N)N)C(=O)N[C@@H](Cc1c[nH]c2ccccc12)C(N)=O (single isomer, unassigned) [Compound 24b] | 
3 | 13.8 | 120 |  |  | CC(C)CC(C[C@H](O)CNC(=O)[C@H](Cc1ccccc1)NC(=O)c1ccc(F)cc1)C(=O)N[C@@H](CCCNC(=N)N)C(=O)N[C@@H](Cc1c[nH]c2ccccc12)C(N)=O (single isomer, unassigned) [Compound 25a] | 
4 | 95.6 | 35 |  |  | CC(C)CC(C[C@H](O)CNC(=O)[C@H](Cc1ccccc1)NC(=O)c1ccc(F)cc1)C(=O)N[C@@H](CCCNC(=N)N)C(=O)N[C@@H](Cc1c[nH]c2ccccc12)C(N)=O (single isomer, unassigned) [Compound 25b] | retention after treatment with MMP2 (MMP2): retained even after 48 hr with scarce decomposition; retention after treatment with MMP9 (MMP9): retained even after 72 hr with scarce decomposition
5 |  |  | 94.7 |  | CC(C)C[C@H](NC(=O)CNC(=O)[C@H](Cc1ccccc1)NC(=O)c1ccc(F)cc1)C(=O)N[C@@H](CCCN=C(N)N)C(=O)N[C@@H](Cc1c[nH]c2ccccc12)C(N)=O [Compound 1, reference compound] | t1/2 [3]: 6.6 h; remaining at 72 h (MMP9; isolated matrix protease MMP9, read-out: amount retained after treatment with MMP9): ~50%
6 |  |  | 97.6 | 38 | CC(C)C[C@H](/C=C/CNC(=O)[C@H](Cc1ccccc1)NC(=O)c1ccc(F)cc1)C(=O)N[C@@H](CCCN=C(N)N)C(=O)N[C@@H](Cc1c[nH]c2ccccc12)C(N)=O [Compound 19] | retention after treatment with MMP2 (MMP2): retained even after 48 hr with scarce decomposition; retention after treatment with MMP9 (MMP9): retained even after 72 hr with scarce decomposition
7 |  |  | 70.3 | 45 | CC(C)C[C@H](CCCNC(=O)[C@H](Cc1ccccc1)NC(=O)c1ccc(F)cc1)C(=O)N[C@@H](CCCNC(=N)N)C(=O)N[C@@H](Cc1c[nH]c2ccccc12)C(N)=O [Compound 20] | 
8 |  |  | 49.3 | 52 | CC(C)C/C(=C\CCNC(=O)[C@H](Cc1ccccc1)NC(=O)c1ccc(F)cc1)C(=O)N[C@@H](CCCNC(=N)N)C(=O)N[C@@H](Cc1c[nH]c2ccccc12)C(N)=O [Compound 21] | 
9 |  |  | 18.7 | 60 | CC(C)C/C(=C\[C@@H](O)CNC(=O)[C@H](Cc1ccccc1)NC(=O)c1ccc(F)cc1)C(=O)N[C@@H](CCCNC(=N)N)C(=O)N[C@@H](Cc1c[nH]c2ccccc12)C(N)=O [Compound 22] | 
10 |  |  | 0.7 | 1100 | CC(C)C/C(=C\[C@H](O)CNC(=O)[C@H](Cc1ccccc1)NC(=O)c1ccc(F)cc1)C(=O)N[C@@H](CCCN=C(N)N)C(=O)N[C@@H](Cc1c[nH]c2ccccc12)C(N)=O [Compound 23] | retention after treatment with MMP9 (MMP9): retained even after 72 hr with scarce decomposition
11 |  |  |  |  | CC(C)C[C@H](NC(=O)CNC(=O)[C@H](Cc1ccccc1)NC(=O)[C@H](CO)NC(=O)[C@H](CC(N)=O)NC(=O)[C@H](Cc1c[nH]c2ccccc12)NC(=O)[C@H](CC(N)=O)NC(=O)[C@@H](N)Cc1ccc(O)cc1)C(=O)N[C@@H](CCCNC(=N)N)C(=O)N[C@@H](Cc1ccccc1)C(N)=O [Kisspeptin-10, reference compound] | QIC (GPR54 [4]; IC50 of compound divided by IC50 of kisspeptin-10): 1; IC50 (GPR54 [4]; [125I]-Metastin 40-54 as labeled ligand, membrane fraction): 0.07 to 0.12 nM; remaining at 48 h (MMP2; isolated matrix protease MMP2, read-out: amount retained after treatment with MMP2): ~65%; QEC (GPR54 [1]; EC50 of compound divided by EC50 of kisspeptin-10): 1

From patent US8592379B2, “Metastin derivative and use thereof” (Kyoto University, priority 2008, dated 2013)
